Legend:
Details in all cases: 72 h
[1] = tested on: HepG2; experiment: drug sensitivity score (DSS) for viability; higher = more toxic; extreme values may be limits of the assay
[2] = tested on: Caco-2; experiment: as above
[3] = tested on: U2OS; experiment: as above
[4] = tested on: Calu-3; experiment: as above
[5] = tested on: Vero E6; experiment: as above
[6] = tested on: HepG2; experiment: cell viability relative to DMSO; higher = less toxic
[7] = tested on: Caco-2; experiment: as above
[8] = tested on: U2OS; experiment: as above
[9] = tested on: Calu-3; experiment: as above
[10] = tested on: Vero E6; experiment: as above
[11] = tested on: HepG2; experiment: relative viability EC50 (midpoint between 100% and the lowest measured viability); higher = less toxic
[12] = tested on: Caco-2; experiment: as above
[13] = tested on: U2OS; experiment: as above
[14] = tested on: Calu-3; experiment: as above
[15] = tested on: Vero E6; experiment: as above

| SMILES | drug sensitivity score [1] | drug sensitivity score [2] | drug sensitivity score [3] | drug sensitivity score [4] | drug sensitivity score [5] | cell viability ([6]; 1 nM) [%] | cell viability ([6]; 10 nM) [%] | cell viability ([6]; 100 nM) [%] | cell viability ([6]; 1000 nM) [%] | cell viability ([6]; 10000 nM) [%] | cell viability ([7]; 1 nM) [%] | cell viability ([7]; 10 nM) [%] | cell viability ([7]; 100 nM) [%] | cell viability ([7]; 1000 nM) [%] | cell viability ([7]; 10000 nM) [%] | cell viability ([8]; 1 nM) [%] | cell viability ([8]; 10 nM) [%] | cell viability ([8]; 100 nM) [%] | cell viability ([8]; 1000 nM) [%] | cell viability ([8]; 10000 nM) [%] | cell viability ([9]; 1 nM) [%] | cell viability ([9]; 10 nM) [%] | cell viability ([9]; 100 nM) [%] | cell viability ([9]; 1000 nM) [%] | cell viability ([9]; 10000 nM) [%] | cell viability ([10]; 1 nM) [%] | cell viability ([10]; 10 nM) [%] | cell viability ([10]; 100 nM) [%] | cell viability ([10]; 1000 nM) [%] | cell viability ([10]; 10000 nM) [%] | relative viability EC50 [11] [µM] | relative viability EC50 [12] [µM] | relative viability EC50 [13] [µM] | relative viability EC50 [14] [µM] | relative viability EC50 [15] [µM] |
| --- | --- | --- | --- | --- | --- | --- | --- | --- | --- | --- | --- | --- | --- | --- | --- | --- | --- | --- | --- | --- | --- | --- | --- | --- | --- | --- | --- | --- | --- | --- | --- | --- | --- | --- | --- |
| CC(CN(C)C)C(C)(O)Cc1ccc(Cl)cc1 (stereo not given) [clobutinol] | 0.1 | 0 | 0 | 0 | 0.1 | 111 | 95.5 | 105 | 97.6 | 88.4 | 99.1 | 118 | 100 | 108 | 97.4 | 97.3 | 97.4 | 97.7 | 96.5 | 96.9 | 98.7 | 106 | 106 | 104 | 98.1 | 101 | 98.6 | 102 | 89.6 | 93.2 | > 10 | > 10 | > 10 | > 10 | > 10 |
| CC(C)(C)NCC(O)COc1cc(Cl)ccc1Cl (stereo not given) [cloranolol] | 0 | 0 | 0 | 0 | 0 | 90.7 | 96.2 | 94.6 | 94.8 | 88.7 | 85.6 | 89.4 | 106 | 112 | 88.8 | 102 | 94.8 | 103 | 97.1 | 106 | 95 | 88.1 | 76.5 | 89.9 | 92.3 | 106 | 98.8 | 100 | 95.5 | 90 | > 10 | > 10 | > 10 | > 10 | > 10 |
| Nc1cc(C(Cl)=C(Cl)Cl)c(S(N)(=O)=O)cc1S(N)(=O)=O [clorsulon] | 0 | 0 | 0 | 0 | 0 | 100 | 106 | 94.2 | 101 | 100 | 94.8 | 90.5 | 98.5 | 93.8 | 102 | 96.9 | 97 | 100 | 97 | 102 | 90.1 | 97.6 | 104 | 97.2 | 101 | 105 | 106 | 96.8 | 102 | 100 | > 10 | > 10 | > 10 | > 10 | > 10 |
| O=S(=O)(O)NC1CCCCC1 [cyclamic-acid] | 0 | 0 | 0 | 0 | 0 | 112 | 99.5 | 97.8 | 98.8 | 105 | 107 | 106 | 85.7 | 98.4 | 93.5 | 98.1 | 100 | 96.8 | 101 | 96.3 | 101 | 99.7 | 90 | 101 | 97.8 | 108 | 99.8 | 101 | 99.1 | 106 | > 10 | > 10 | > 10 | > 10 | > 10 |
| Nc1nc(N)nc(NC2CC2)n1 [cyromazine] | 0 | 0 | 0 | 0 | 0 | 96.3 | 105 | 99.8 | 95 | 104 | 99.6 | 99.8 | 108 | 95.3 | 96.1 | 94.9 | 93.4 | 97.8 | 96.7 | 103 | 105 | 92.6 | 95.7 | 84.6 | 103 | 92.8 | 98.2 | 93 | 99.1 | 109 | > 10 | > 10 | > 10 | > 10 | > 10 |
| Cc1ccccc1N1CCN(CCc2nnc3n2CCCC3)CC1 [dapiprazole] | 0 | 0 | 0 | 0 | 0 | 99.8 | 104 | 92.9 | 94.3 | 102 | 106 | 99.9 | 86.9 | 98 | 92.5 | 99.2 | 105 | 96.2 | 106 | 102 | 106 | 102 | 92.9 | 102 | 101 | 92.9 | 93.2 | 97.6 | 98.9 | 92.8 | > 10 | > 10 | > 10 | > 10 | > 10 |
| CCOC(=O)[C@H](CCc1ccccc1)N[C@@H](C)C(=O)N(CC(=O)O)C1Cc2ccccc2C1 [delapril] | 0 | 0 | 0 | 0 | 0 | 105 | 102 | 98.3 | 96.7 | 98 | 106 | 103 | 98.2 | 111 | 95.4 | 100 | 93.1 | 103 | 98.6 | 98 | 98.6 | 101 | 92.3 | 90.6 | 106 | 107 | 102 | 111 | 107 | 99.7 | > 10 | > 10 | > 10 | > 10 | > 10 |
| Nc1ncnc2c1ncn2[C@@H]1O[C@H](COP(=O)(O)OP(=O)(O)OP(=O)(O)OP(=O)(O)OC[C@H]2O[C@@H](n3cnc4c(N)ncnc43)[C@H](O)[C@@H]2O)[C@@H](O)[C@H]1O [diadenosine-tetraphosphate] | 0 | 0 | 0 | 0.1 | 0 | 94.6 | 101 | 114 | 102 | 104 | 99.4 | 97.8 | 99.3 | 102 | 107 | 94.5 | 98.1 | 97.7 | 97.5 | 107 | 106 | 104 | 94.9 | 89.6 | 92.4 | 99 | 102 | 96.5 | 102 | 97 | > 10 | > 10 | > 10 | > 10 | > 10 |
| CC(C)[C@@]1(NC(=O)[C@@H]2C[C@@H]3c4cccc5[nH]cc(c45)C[C@H]3N(C)C2)O[C@@]2(O)[C@@H]3CCCN3C(=O)[C@H](Cc3ccccc3)N2C1=O [dihydroergocristine] | 0.1 | 0 | 0 | 0 | 0 | 103 | 95.1 | 95.8 | 100 | 86.4 | 105 | 100 | 89.3 | 102 | 91.7 | 96.3 | 100 | 99.2 | 98.2 | 96.4 | 92.6 | 97.5 | 99 | 93.3 | 94.9 | 102 | 100 | 102 | 99 | 99.5 | > 10 | > 10 | > 10 | > 10 | > 10 |
| CC(=O)Oc1cccc(C(=O)O)c1OC(C)=O [dipyrocetyl] | 0 | 0 | 0 | 0 | 0 | 96 | 95.9 | 97.8 | 89.5 | 96.9 | 99.9 | 90.2 | 100 | 97 | 92 | 103 | 96.8 | 101 | 101 | 101 | 93.8 | 92.9 | 85.2 | 99.8 | 86.8 | 101 | 105 | 103 | 99.4 | 101 | > 10 | > 10 | > 10 | > 10 | > 10 |
| Cc1ccccc1NC(=N)Nc1ccccc1C [ditolylguanidine] | 0 | 0.2 | 0 | 0 | 0 | 100 | 96.1 | 97.7 | 94.3 | 97.9 | 96.5 | 100 | 103 | 95.6 | 88.3 | 98.8 | 104 | 94.6 | 102 | 94.7 | 103 | 104 | 95.8 | 103 | 90.4 | 96.4 | 104 | 95.6 | 100 | 95.6 | > 10 | > 10 | > 10 | > 10 | > 10 |
| Cc1cc(Oc2ccc3nc(COc4ccc(CC5SC(=O)NC5=O)cc4)n(C)c3c2)cc(C)c1N (stereo not given) [efatutazone] | 0 | 0 | 0 | 0 | 3.6 | 105 | 99.5 | 106 | 104 | 103 | 102 | 97.6 | 97.1 | 97.3 | 97.4 | 98.3 | 104 | 97.5 | 106 | 97.6 | 106 | 102 | 104 | 105 | 99.2 | 95.4 | 86 | 87.5 | 87.1 | 85.3 | > 10 | > 10 | > 10 | > 10 | > 10 |
| CC(/C=C1\SC(=S)N(CC(=O)O)C1=O)=C\c1ccccc1 [epalrestat] | 0 | 0 | 0 | 0 | 0 | 100 | 96.4 | 102 | 95.6 | 106 | 92.6 | 87.2 | 95.8 | 104 | 98.8 | 99.4 | 98.1 | 98.4 | 103 | 100 | 102 | 96.8 | 96.7 | 97.8 | 107 | 98.3 | 95.4 | 94.7 | 101 | 102 | > 10 | > 10 | > 10 | > 10 | > 10 |
| C=C1/C(=C\C=C2/CCC[C@]3(C)[C@@H]([C@H](C)/C=C/[C@H](C)C(C)(C)O)CC[C@@H]23)C[C@@H](O)C[C@@H]1O [ercalcitriol] | 0.1 | 0 | 0 | 0 | 0 | 104 | 107 | 104 | 104 | 84.7 | 97.7 | 110 | 106 | 96.4 | 94.6 | 104 | 99.7 | 99.4 | 95.7 | 91.5 | 106 | 99.2 | 101 | 99 | 100 | 99 | 99.6 | 88.5 | 98.1 | 94.9 | > 10 | > 10 | > 10 | > 10 | > 10 |

Source: the supplement of paper PMC13380429
